Values joined by “and” are separate entries in the source; they are usually repeats but may differ in a detail not shown here. Equal entries are not always repeated.
Molecular target: T1, AXL (human catalytic domain) (Homo sapiens, UniProt P30530)
T1 construct: purchased Upstate Ltd. 14-512
T1 sequence (P30530 473-894): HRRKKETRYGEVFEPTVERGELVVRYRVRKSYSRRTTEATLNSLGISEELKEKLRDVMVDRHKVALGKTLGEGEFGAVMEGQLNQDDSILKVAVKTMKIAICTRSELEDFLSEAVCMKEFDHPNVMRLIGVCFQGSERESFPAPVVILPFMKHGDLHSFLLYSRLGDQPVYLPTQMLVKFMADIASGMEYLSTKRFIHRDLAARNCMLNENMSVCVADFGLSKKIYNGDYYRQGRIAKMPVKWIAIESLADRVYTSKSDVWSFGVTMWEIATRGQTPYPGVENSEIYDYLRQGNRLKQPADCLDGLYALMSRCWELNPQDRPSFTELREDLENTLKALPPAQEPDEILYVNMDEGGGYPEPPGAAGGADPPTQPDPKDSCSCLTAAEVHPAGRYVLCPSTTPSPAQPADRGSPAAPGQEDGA
Experiment: AXL (human catalytic domain) Enzyme Activity Assay (IMAP fluorescence polarisation)
Assay type: biochemical
Method in brief: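 IMAP FP readout (Ex485/Em535, after overnight binding) measured inhibition of the human AXL catalytic domain (aa473-894, 15 nM final) acting on 100 nM 5FAM-CSK-tide at 150 μM ATP, equal to KM. Reactions ran 60 min at room temperature in pH 7.0 HEPES buffer; IC50 from 10-point curves.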

[1] = further data set (WW-001 through WW-169, XX-001 through XX-469, YY-001 through YY-016, ZZ-001 through ZZ-003), 150 μM ATP
[2] = first data set, recombinant AXL isoform 1 aa473-894, 150 μM ATP

SMILES | IC50 [1] [nM] | IC50 [2]
O=C(Nc1nc2cccc(-c3ccc(F)c(O)c3)n2n1)C1CC1 [WW-097] | 100 to 1000 | < 1000 nM
c1cc(-c2ccc3c(c2)OCCO3)n2nc(Nc3ccc(OCCN4CCCC4)nc3)nc2c1 [XX-102] | 100 to 1000 | 
O=C(Nc1nc2cccc(-c3cccc(O)c3)n2n1)C1CC1 [WW-020] | 1000 to 10000 | 1000 to 10000 nM
c1cc(-c2ccc(-c3ccoc3)cc2)n2nc(Nc3ccc(OCCN4CCCC4)cc3)nc2c1 [XX-185] | 100 to 1000 | 
COc1ccc(-c2cccc3nc(Nc4ccc(OCCN(C)CCO)cc4)nn23)cc1 [XX-065] | ≤ 100 | < 1000 nM
CC(=O)Nc1cccc(-c2cccc3nc(NC(=O)C4CC4)nn23)c1 [WW-002, Cyclopropanecarboxylic acid [5-(3-acetylamino-phenyl)-[1,2,4]triazolo [1,5-a]pyridin-2-yl]-amide] | 1000 to 10000 | 1000 to 10000 nM
CNc1ccc(Nc2nc3cccc(-c4ccc(OC)cc4)n3n2)cc1 [XX-056] | 1000 to 10000 | 1000 to 10000 nM
c1cc(NC2CCCC2)n2nc(Nc3ccc(OCCN4CCCC4)cc3)nc2c1 [XX-152, N*5*-Cyclopentyl-N*2*-[4-(2-pyrrolidin-1-yl-ethoxy)-phenyl]-[1,2,4]triazolo[1,5-a]pyridine-2,5-diamine] | 1000 to 10000 | 
Cc1cc(-c2cccc3nc(Nc4ccc(OCCN5CCCC5)cc4)nn23)ccc1N(C)C [XX-094] | 100 to 1000 | 
COc1ccccc1-c1cccc2nc(Nc3ccc(OCCN4CCCC4)cc3)nn12 [XX-194] | 1000 to 10000 | 
c1ccc(COc2cccc(-c3cccc4nc(Nc5ccc(OCCN6CCCC6)cc5)nn34)c2)cc1 [XX-278] | 100 to 1000 | 
c1ccc(Cn2cc(-c3cccc4nc(Nc5ccc(OCCN6CCCC6)cc5)nn34)cn2)cc1 [XX-193, [5-(1-Benzyl-1H-pyrazol-4-yl)-[1,2,4]triazolo[1,5-a]pyridin-2-yl]-[4-(2-pyrrolidin-1-yl-ethoxy)-phenyl]-amine] | 100 to 1000 | 
COC(=O)c1ccc(-c2cccc3nc(NC(=O)C4CC4)nn23)cc1 [WW-070] | 1000 to 10000 | 1000 to 10000 nM
COc1ccc(-c2cccc3nc(Nc4ccc(OCCn5ccnc5)cc4)nn23)cc1 [XX-016] | 100 to 1000 | < 1000 nM
c1cc(-c2ccc3c(c2)CCO3)n2nc(Nc3ccc(OCCN4CCCCC4)cc3)nc2c1 [XX-052] | 100 to 1000 | < 1000 nM
O=C(Nc1nc2cccc(-c3cn[nH]c3)n2n1)C1CC1 [WW-060, cyclopropanecarboxylic acid [5-(1H-pyrazol-4-yl)-[1,2,4]triazolo[1,5-a]pyridin-2-yl]-amide] | 1000 to 10000 | 1000 to 10000 nM
O=C(NCCN1CCCC1)c1cccc(Nc2nc3cccc(-c4ccc5c(c4)OCCO5)n3n2)c1 [XX-113] | ≤ 100 | 

SMILES | IC50 [1] [nM] | IC50 [2]
Cc1cc(-c2cccc3nc(NC(=O)C4CC4)nn23)ccn1 [WW-087] | 1000 to 10000 | 1000 to 10000 nM
CC(Nc1cccc2nc(NC(=O)C3CC3)nn12)c1ccccc1 (centres unmarked) [WW-113] | 1000 to 10000 | 1000 to 10000 nM
O=C(Nc1nc2cccc(-c3ccc(Cl)cc3)n2n1)C1CC1 [WW-023] | 1000 to 10000 | 1000 to 10000 nM
F[C@H]1CCN(CCOc2ccc(Nc3nc4cccc(-c5ccc6c(c5)OCCO6)n4n3)cc2)C1 [XX-157] | 100 to 1000 | 
Cc1ccc(-c2cccc3nc(NC(=O)C4CC4)nn23)s1 [WW-055] | 1000 to 10000 | 1000 to 10000 nM
Fc1cc(Nc2nc3cccc(-c4ccc5c(c4)OCCO5)n3n2)ccc1OCCN1CCCC1 [XX-133] | ≤ 100 | 
c1cc(-c2ccc3c(c2)OCCO3)n2nc(Nc3ccc(NCCN4CCCC4)cc3)nc2c1 [XX-105] | 100 to 1000 | 
CN1CCCC1CCNc1cccc2nc(NC(=O)C3CC3)nn12 (centres unmarked) [WW-076] | 1000 to 10000 | 1000 to 10000 nM
CN(C)CCOc1ccc(Nc2nc3cccc(-c4ccc5c(c4)CCO5)n3n2)cc1 [XX-053] | ≤ 100 | < 1000 nM
Oc1ccc(-c2cccc3nc(Nc4ccc(OCCN5CCCC5)cc4)nn23)cc1F [XX-243] | 100 to 1000 | 
Cc1ccc(-c2cccc3nc(Nc4ccc(OCCN5CCCC5)cc4)nn23)cn1 [XX-204] | 1000 to 10000 | 
COCc1ccc(-c2cccc3nc(Nc4ccc(OCCN5CCCC5)cc4)nn23)cc1 [XX-217] | 100 to 1000 | 
Cc1ccc(S(=O)(=O)Nc2ccc(-c3cccc4nc(Nc5ccc(OCCN6CCCC6)cc5)nn34)cc2)cc1 [XX-271] | 100 to 1000 | 
CCN(CC)CC(=O)Nc1cccc(Nc2nc3cccc(-c4ccc5c(c4)OCCO5)n3n2)c1 [XX-120] | 100 to 1000 | 
COc1ccc(-c2cccc3nc(Nc4ccc(OCCCN)cc4)nn23)cc1 [XX-041, [4-(3-Amino-propoxy)-phenyl]-[5-(4-methoxy-phenyl)-[1,2,4]triazolo[1,5-a]pyridin-2-yl]-amine] | 100 to 1000 | < 1000 nM
COc1ccccc1NC(=O)Nc1cccc(-c2cccc3nc(Nc4ccc(OCCN5CCCC5)cc4)nn23)c1 [XX-229] | 1000 to 10000 | 

The remaining lines, values ahead:

IC50 [1] [nM] | IC50 [2] | SMILES
100 to 1000 |  | O=C(Cn1cc(-c2cccc3nc(Nc4ccc(OCCN5CCCC5)cc4)nn23)cn1)Nc1ccccc1 [XX-432]
100 to 1000 |  | ClCc1cccc(-c2cccc3nc(Nc4ccc(OCCN5CCCC5)cc4)nn23)c1 [XX-341, [5-(3-Chloromethyl-phenyl)-[1,2,4]triazolo[1,5-a]pyridin-2-yl]-[4-(2-pyrrolidin-1-yl-ethoxy)-phenyl]-amine]
100 to 1000 |  | CCOc1ccc(-c2nccc3nc(NC(=O)C4CC4)nn23)cc1 [ZZ-002]
100 to 1000 |  | COc1ccc(CNc2cccc(-c3cccc4nc(Nc5ccc(OCCN6CCCC6)cc5)nn34)c2)cc1 [XX-453]
1000 to 10000 |  | O=C(Nc1ccc(Cl)cc1)c1cccc(-c2cccc3nc(Nc4ccc(OCCN5CCCC5)cc4)nn23)c1 [XX-321]
100 to 1000 |  | Cn1ccc2cc(-c3cccc4nc(Nc5ccc(OCCN6CCCC6)cc5)nn34)ccc21 [XX-439]
100 to 1000 |  | c1cc(-c2ccc3cc[nH]c3c2)n2nc(Nc3ccc(OCCCN4CCCCC4)cc3)nc2c1 [XX-347]
≤ 100 |  | CC[C@H](COc1ccc(Nc2nc3cccc(-c4ccc(OC)cc4)n3n2)cc1)N1CCCC1 [XX-414]
≤ 100 |  | CCS(=O)(=O)n1cc(-c2cccc3nc(Nc4ccc(OCCN5CCCC5)cc4)nn23)cn1 [XX-374]
100 to 1000 |  | Cc1ccc(CS(=O)(=O)n2cc(-c3cccc4nc(Nc5ccc(OCCN6CCCC6)cc5)nn34)cn2)cc1 [XX-295]
1000 to 10000 |  | O=C(NCc1cccc(-c2cccc3nc(Nc4ccc(OCCN5CCCC5)cc4)nn23)c1)Nc1cccc(Cl)c1 [XX-348, 1-(3-Chloro-phenyl)-3-(3-{2-[4-(2-pyrrolidin-1-yl-ethoxy)-phenylamino]-[1,2,4]triazolo[1,5-a]pyridin-5-yl}-benzyl)-urea]
100 to 1000 |  | COc1ccc(-c2cccc3nc(Nc4ccc(N(C)C(=O)C(C)N5CCOCC5)cc4)nn23)cc1 (centres unmarked) [XX-368]
≤ 100 |  | Cc1ccc(-c2nccc3nc(Nc4ccc(OCCN5CCCC5)cc4)nn23)cc1F [YY-014]
1000 to 10000 |  | CCCCS(=O)(=O)n1cc(-c2cccc3nc(Nc4ccc(OCCN5CCCC5)cc4)nn23)cn1 [XX-296]
100 to 1000 |  | c1cncc(CNc2cccc(-c3cccc4nc(Nc5ccc(OCCN6CCCC6)cc5)nn34)c2)c1 [XX-442]
100 to 1000 |  | Cc1ncc(CNc2cccc(-c3cccc4nc(Nc5ccc(OCCN6CCCC6)cc5)nn34)c2)n1C [XX-449]
1000 to 10000 |  | COc1ccc2nc(Nc3ccc(OCCN4CCCC4)cc3)nn2c1-c1ccc2c(c1)OCCO2 [XX-323, [5-(2,3-Dihydro-benzo[1,4]dioxin-6-yl)-6-methoxy-[1,2,4]triazolo[1,5-a]pyridin-2-yl]-[4-(2-pyrrolidin-1-yl-ethoxy)-phenyl]-amine]
1000 to 10000 |  | CCCOc1cccc(-c2cccc3nc(Nc4ccc(OCCN5CCCC5)cc4)nn23)c1 [XX-405]
100 to 1000 |  | FC(F)(F)c1ccc(CNc2cccc(-c3cccc4nc(Nc5ccc(OCCN6CCCC6)cc5)nn34)c2)o1 [XX-448]
100 to 1000 |  | CCOc1ccc(-c2nccc3nc(Nc4ccc(OCCN5CCCC5)c(OC)c4)nn23)cc1 [YY-006]
100 to 1000 |  | Clc1ccc(-c2cccc3nc(Nc4ccc(OCCN5CCCC5)cc4)nn23)s1 [XX-299]
100 to 1000 |  | CC(C)CS(=O)(=O)n1cc(-c2cccc3nc(Nc4ccc(OCCN5CCCC5)cc4)nn23)cn1 [XX-284]
100 to 1000 | < 1000 nM and 105 nM | COc1ccc(-c2nccc3nc(Nc4ccc(OCCN(C)C)cc4)nn23)cc1 [YY-003]
100 to 1000 |  | COc1ccc(-c2cccc3nc(Nc4ccc(OC[C@@H](c5ccccc5)N5CCCC5)cc4)nn23)cc1 [XX-411]
1000 to 10000 |  | Clc1cccc(COc2cccc(-c3cccc4nc(Nc5ccc(OCCN6CCCC6)cc5)nn34)c2)c1 [XX-330]
100 to 1000 |  | c1cc(-c2cnn(CC3CCCCC3)c2)n2nc(Nc3ccc(OCCN4CCCC4)cc3)nc2c1 [XX-356]
1000 to 10000 |  | Cc1ccccc1COc1cccc(-c2cccc3nc(Nc4ccc(OCCN5CCCC5)cc4)nn23)c1 [XX-400]
100 to 1000 |  | c1ccc(Cn2cc(-c3nccc4nc(Nc5ccc(OCCN6CCCC6)cc5)nn34)cn2)cc1 [YY-011, [5-(1-Benzyl-1H-pyrazol-4-yl)-[1,2,4]triazolo[1,5-c]pyrimidin-2-yl]-[4-(2-pyrrolidin-1-yl-ethoxy)-phenyl]-amine]
≤ 100 | < 1000 nM | COc1ccc(-c2nccc3nc(Nc4ccc(OCCN5CCCCC5)cc4)nn23)cc1 [YY-002]

— patent publication US8431596B2 (Cancer Research Technology Limited, priority 2007, dated 2013)
